Measured values taken from US8501713B2, “Drug combinations for the treatment of duchenne muscular dystrophy” (Summit Corporation PLC, priority 2007, dated 2013).

How the values were obtained:
mdx mice = assay: Forced exercise treadmill test: fatigue in mdx mice; format: in vivo, mdx mouse; settings: 50 mg/kg ip daily for 5 weeks in combination with prednisolone, FIG. 4
Protocol: The effect of combinations of a compound of formula (1) with a corticosteroid (prednisolone) was examined by measuring fatigue induced by a forced exercise regime in mdx mice. Four to five week-old male mdx mice were forced to exercise (30 min running on horizontal treadmill at 12 m/min twice a week on the same day and at the same time) over a five week treatment course. Each treatment group included 6 mice. At the end of the treatment course, exhaustion was induced by running on a horizontal treadmill at 5 m/min for 5 min, with incremental speed increases of 1 m/min each minute until exhaustion. The total distance run was then measured. […] Sedentary and vehicle only groups acted as negative controls.

mdx hearts = settings: Khairallah et al. (2008); cited from earlier work
skeletal muscle cells = assay: Myotube formation and muscle protein expression in primary cultures of skeletal muscle cells; format: cell-based, mice
Protocol: GTE and EGCG also display unexpected pro myogenic properties. Primary cultures of skeletal muscle cells were established from both normal and dystrophic mice and treated with GTE and EGCG for 1-7 days. […] The amount of myotubes reached similar level with both agents compared to control thereafter. Western-blot analysis was performed on myotube cultures treated for 7 days.

[1] = test system: Utrophin A promoter linked to a luciferase reporter gene; assay: Luciferase reporter assay (murine H2K cells); format: cell-based; settings: for activity at 10 µM: Mus musculus, H2K mdx, luciferase level relative to control, H2K/mdx/Utro A reporter cells, compound 10 μM final concentration, read-out: Activity; for Activity: luciferase reporter assay in murine H2K cells, classified relative to control
In short: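 Immortalized mdx mouse H2K myoblasts stably carrying a ~5 kb utrophin A promoter–luciferase construct, kept at 33° C, 10% CO2. After 24 hrs plating, compound added at 10 μM final for 48 hrs; luciferase light output read after in-situ lysis.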

Row | SMILES | activity at 10 µM [1] [%] | Activity [1] | further results
1 | C[C@]12C=CC(=O)C=C1CC[C@@H]1[C@@H]2[C@@H](O)C[C@@]2(C)[C@H]1CC[C@]2(O)C(=O)CO [PDN, prednisolone, reference compound] | – | – | exercise-induced fatigue (total distance run to exhaustion) (mdx mice): act in synergy to reduce exercise-induced fatigue
2 | CCCc1nn(C)c2c(=O)[nH]c(-c3cc(S(=O)(=O)N4CCN(C)CC4)ccc3OCC)nc12 [sildenafil] | – | – | myocardial contractile performance (mdx hearts): prevents deterioration of myocardial contractile performance
3 | O=C(O[C@@H]1Cc2c(O)cc(O)cc2O[C@@H]1c1cc(O)c(O)c(O)c1)c1cc(O)c(O)c(O)c1 [EGCG, epigallocatechin gallate] | – | – | expression of muscle-specific proteins (dystrophin, sarcomeric alpha actinin, MyHC) (skeletal muscle cells; myotube cultures treated for 7 days, Western blot): promoted the expression of several muscle-specific proteins; rate of formation of myotubes (skeletal muscle cells; primary skeletal muscle cell cultures from normal and dystrophic mice, within first 2-4 days, MyHC staining): concentration-dependently stimulated the rate of formation of myotubes
4 | CCS(=O)(=O)c1ccc2oc(-c3ccc4ccccc4c3)nc2c1 [Example 390, 5-(ethylsulfonyl)-2-(naphthalen-2-yl)benzo[d]oxazole] | 301 to 400 | – | exercise-induced fatigue (total distance run to exhaustion) (mdx mice): act in synergy to reduce exercise-induced fatigue
5 | COc1ccc(-c2nc3ccccc3n2C)cc1OC [Example 521] | – | + (Up to 200% relative to control) | –
6 | Nc1ccc2oc(-c3ccccc3F)nc2c1 [Example 569] | – | +++ (Between 301% and 400% relative to control) | –
7 | O=C(Cc1cccs1)Nc1ccc(-c2nc3ccccc3[nH]2)cc1 [Example 493] | – | + (Up to 200% relative to control) | –
8 | CC(=O)Nc1ccc(-c2nc3cc(-c4ccc(Cl)cc4)ccc3o2)cc1 [Example 372, N-(4-(5-(4-chlorophenyl)benzo[d]oxazol-2-yl)phenyl)acetamide] | < 200 | – | –
9 | O=[N+]([O-])c1ccc2oc(-c3ccc(F)cc3)nc2c1 [Example 525] | – | + (Up to 200% relative to control) | –
10 | Nc1ccc2[nH]c(-c3ccccc3O)nc2c1 [Example 133, 2-(5-amino-1H-benzo[d]imidazol-2-yl)phenol] | < 200 | – | –
11 | O=C(CC(F)(F)F)Nc1ccc2oc(-c3ccc(Cl)c(Cl)c3)nc2c1 [Example 352, N-(2-(3,4-dichlorophenyl)benzo[d]oxazol-5-yl)-3,3,3-trifluoropropanamide] | > 401 | – | –
12 | Nc1ccc(-c2nc3ccc(Cl)cc3o2)cc1 [Example 290, 4-(6-chlorobenzo[d]oxazol-2-yl)aniline] | 301 to 400 | – | –
13 | Clc1ccc(-c2nc3c(ccc4ccccc43)o2)cc1 [Example 409, 2-(4-chlorophenyl)naphtho[1,2-d]oxazole] | > 401 | – | –
14 | Cc1ccc(-c2nc3cc(NC(=O)C(C)(C)C)ccc3o2)cc1 [Example 208, N-(2-p-tolylbenzo[d]oxazol-5-yl)pivalamide] | 201 to 300 | – | –
15 | O=[N+]([O-])c1ccc2oc(-c3ccccc3O)nc2c1 [Example 21, 2-(5-nitrobenzo[d]oxazol-2-yl)phenol] | < 200 | – | –
16 | Cc1ccc2oc(-c3ccc4ccccc4c3)nc2c1 [Example 458, 5-Methyl-2-(naphthalen-2-yl)benzo[d]oxazole] | > 401 | – | –
17 | CC(C)C(=O)Nc1ccc2oc(CCc3ccccc3)nc2c1 [Example 302, N-(2-phenethylbenzo[d]oxazol-5-yl)isobutyramide] | < 200 | – | –
18 | CCCc1ccc(-c2nc3ccc(-c4nc5ccc(C(=O)O)cc5o4)cc3o2)cc1 [Example 110, 2′-(4-propylphenyl)-2,6′-bibenzo[d]oxazole-6-carboxylic acid] | < 200 | – | –
19 | Cc1ccc(-c2nc3cc(NC(=O)CC(F)(F)F)ccc3o2)cc1 [Example 254, 3,3,3-trifluoro-N-(2-p-tolylbenzo[d]oxazol-5-yl)propanamide] | 201 to 300 | – | –

Row | SMILES | activity at 10 µM [1] [%] | Activity [1] | further results
20 | O=C(C=Cc1ccccc1)Nc1ccc2oc(-c3ccccc3)nc2c1 [Example 34, N-(2-phenylbenzo[d]oxazol-5-yl)cinnamamide] | < 200 | – | –
21 | O=S(=O)(O)c1ccc2oc(-c3ccc(Cl)cc3)nc2c1 [Example 312, 2-(4-chlorophenyl)benzo[d]oxazole-5-sulfonic acid] | < 200 | – | –
22 | COc1ccc(-c2nc3cc(C)ccc3o2)cc1 [Example 675] | – | ++ (Between 201% and 300% relative to control) | –
23 | Fc1ccc(-c2ccc3oc(-c4ccc(Cl)cc4)nc3c2)cn1 [Example 315, 2-(4-chlorophenyl)-5-(6-fluoropyridin-3-yl)benzo[d]oxazole] | < 200 | – | –
24 | O=C(Nc1ccc2oc(-c3ccccc3)nc2c1)c1ccc(Cl)cc1 [Example 23, 4-chloro-N-(2-phenylbenzo[d]oxazol-5-yl)benzamide] | < 200 | – | –
25 | COc1ccc(CSc2nc3ccccc3[nH]2)cc1 [Example 640] | – | +++ (Between 301% and 400% relative to control) | –
26 | O=C(Nc1ccc(-c2nc3ccccc3[nH]2)cc1)C1CCCO1 (stereo not drawn) [Example 587] | – | +++ (Between 301% and 400% relative to control) | –
27 | CC(C)(C)c1ccc2oc(-c3ccc4ccccc4c3)nc2c1 [Example 451, 5-tert-Butyl-2-(naphthalen-2-yl)benzo[d]oxazole] | < 200 | – | –
28 | O=C(Nc1ccc2c(c1)OCO2)c1sc2ccccc2c1Cl [Example 618] | – | ++++ (Above 401% relative to control) | –
29 | COc1ccc(-c2nc3cc([N+](=O)[O-])ccc3[nH]2)cc1 [Example 586] | – | ++ (Between 201% and 300% relative to control) | –
30 | Cc1ccc(NC(=O)C(=O)c2c[nH]c3ccccc23)c(Br)c1 [Example 663] | – | +++ (Between 301% and 400% relative to control) | –
31 | O=C(CCc1ccccc1)Nc1ccc2oc(-c3ccc(Cl)cc3)nc2c1 [Example 98, N-(2-(4-chlorophenyl)benzo[d]oxazol-5-yl)-3-phenylpropanamide] | < 200 | – | –
32 | Clc1ccc2oc(-c3ccncc3)nc2c1 [Example 330, 5-chloro-2-(pyridin-4-yl)benzo[d]oxazole] | < 200 | – | –
33 | Nc1ccc2[nH]c(-c3ccc(Cl)cc3)nc2c1 [Example 560] | – | +++ (Between 301% and 400% relative to control) | –
34 | COCCC(=O)Nc1ccc2oc(-c3ccc(C)cc3)nc2c1 [Example 160, 3-methoxy-N-(2-p-tolylbenzo[d]oxazol-5-yl)propanamide] | > 401 | – | –
35 | Cc1ccc2nc(-c3ccc(N)cc3)sc2c1 [Example 664] | – | ++ (Between 201% and 300% relative to control) | –
36 | Cc1ccc(OCc2nc3ccccc3[nH]2)cc1 [Example 531] | – | ++ (Between 201% and 300% relative to control) | –
37 | Clc1ccc(-c2nc3ccccc3s2)c(Cl)c1 [Example 595] | – | ++ (Between 201% and 300% relative to control) | –
